The results in this text go back to patent publication US20210116454A1, “METHODS FOR TREATING A HEMATOLOGICAL CANCER AND THE USE OF COMPANION BIOMARKERS FOR 2-(2,6-DIOXOPIPERIDIN-3-YL)-4-((2-FLUORO-4-((3-MORPHOLINOAZETIDIN-1-YL)METHYL)BENZYL)AMINO)ISOINDOLINE-1,3-DIONE” (CELGENE CORPORATION, priority 2019, published 2021).

As usually defined, the IC50 is the concentration that inhibits the measured activity by half.

What all share (test): 5-day viable cell number and apoptosis (7-AAD exclusion/Annexin V flow cytometry)
Type in all cases: cell-based
A general note: In flow cytometry, cells or beads pass a laser one at a time.

In one assay the test system is U2932. Conditions: Homo sapiens; U2932 cells (Table 3); read-out: IC50. The source says: (§1) The DLBCL panel includes seven cell lines classified as activated B-cell (ABC) subtype, thirteen cell lines classified as the germinal center B-cell (GCB) subtype, and three cell lines classified as primary mediastinal B-cell lymphoma (PMBL). […] The translocation of MYC, BCL6, or BCL2 to an IG locus usually leads to high levels of mRNA and protein due to the active transcription driven by a constitutively active IG promoter. […] Expressions of CRBN protein and known substrates, Ikaros, Aiolos, and ZFP91 were also evaluated (FIG. 1, panels B and C).
(§2) The panel of cell lines were treated with increasing doses of compounds for five days, at which time the number of viable cells was measured and the amount of apoptosis was determined by 7-AAD exclusion and Annexin V staining using flow cytometry.

Another assay has as its system SU-DHL-10. Conditions: Homo sapiens, SU-DHL10; SU-DHL-10 cells (Table 3); read-out: IC50.
Text: as §1, §2

In a further assay the test system is OCI-LY-19. Conditions: Homo sapiens, OCI-LY19; OCI-LY-19 cells (Table 3); read-out: IC50.
Text: as §1, §2

A further assay has as its system SU-DHL-2. Conditions: Homo sapiens; SU-DHL-2 cells (Table 3); read-out: IC50.
Text: as §1, §2

For the next assay, the system named is HT. Conditions: Homo sapiens; HT cells (Table 3); read-out: IC50.
Text: as §1, §2

The next assay has as its system WSU-DLCL2. Conditions: Homo sapiens, WSUDLCL2; WSU-DLCL2 cells (Table 3); read-out: IC50.
Text: as §1, §2

Another assay deals with TMD8. Conditions: Homo sapiens; TMD8 cells (Table 3); read-out: IC50.
Text: as §1, §2

The test system of a further assay is KARPAS-1106P. Conditions: Homo sapiens; KARPAS-1106P cells (Table 3); read-out: IC50.
Text: as §1, §2

The subject of the next assay is SU-DHL-8. Conditions: Homo sapiens; SU-DHL-8 cells (Table 3); read-out: IC50.
Text: as §1, §2

A further assay concerns SU-DHL-4. Conditions: Homo sapiens; SU-DHL-4 cells (Table 3); read-out: IC50.
Text: as §1, §2

The next assay has as its system RIVA. Conditions: RIVA cells (Table 3); read-out: IC50.
Text: as §1, §2

For the next assay, the system named is Farage. Conditions: Farage cells (Table 3); read-out: IC50.
Text: as §1, §2

A further assay relates to DB. Conditions: Homo sapiens; DB cells (Table 3).
Text: as §1, §2

The test system of a further assay is RC-K8. Conditions: Homo sapiens, RCK8; RC-K8 cells (Table 3); read-out: IC50.
Text: as §1, §2

Another assay concerns OCI-LY-7. Conditions: Homo sapiens, OCI-Ly7; OCI-LY-7 cells (Table 3); read-out: IC50.
Text: as §1, §2

A further assay concerns Pfeiffer. Conditions: Homo sapiens; Pfeiffer cells (Table 3).
Text: as §1, §2

Another assay deals with OCI-LY-3. Conditions: Homo sapiens, OCI-Ly3; OCI-LY-3 cells (Table 3).
Text: as §1, §2

The next assay relates to Toledo. Conditions: Homo sapiens; Toledo cells (Table 3); read-out: IC50.
Text: as §1, §2

The subject of another assay is U2940. Conditions: Homo sapiens, U-2940; U2940 cells (Table 3); read-out: IC50.
Text: as §1, §2

On to `COc1cccc2c1C(=O)c1c(O)c3c(c(O)c1C2=O)C[C@@](O)(C(=O)CO)C[C@@H]3O[C@H]1C[C@H](N)[C@H](O)[C@H](C)O1` [Doxorubicin, reference compound], for which the IC50 was 3 µM with U2932; 0.6 µM in the assay on SU-DHL-10; 2 µM with OCI-LY-19; 1.3 µM in the assay on SU-DHL-2; 2 µM with HT; 1.5 µM in the assay on WSU-DLCL2. Also, the IC50 in the assay with TMD8 worked out at 0.7 µM; with KARPAS-1106P, 1.7 µM; in the assay with SU-DHL-8 it was 0.6 µM; in the assay with SU-DHL-4, 1 µM; with RIVA, 5.5 µM; in the assay on Farage, 1.2 µM. Also, the concentration for half-maximal inhibition (IC50) in the assay on DB amounted to 3.8 µM; in the assay with RC-K8, 3.5 µM; in the assay on OCI-LY-7, 5 µM; in the assay on Pfeiffer, 3 µM; with OCI-LY-3, 11.6 µM; with Toledo, 4 µM. Further, the concentration for half-maximal inhibition (IC50) in the assay with U2940 came out at 2 µM.
